# Data reported in patent publication EP2787958B1, “CHELIDONIUM MAJUS EXTRACTS AND THEIR USE IN THE TREATMENT OF SKIN DISORDERS AND PROMOTION OF SKIN REGENERATION” (priority 2011, dated 2013).
# Like-named read-outs stand apart in the source and are kept apart here.
# How the values were obtained:
# HDF cells [1] = assay: Summary of uses and toxic effects deduced from the cell assays (Table 1); assay type: cell-based, Human; conditions: for Anti-fibrotic (prevention of scar formation, also from acne) / Cytoprotective (antioxidant, anti-inflammatory and anti-ageing; useful also in the treatment of acne) / Cytotoxic / Irritant / Wound-healing: 24 hours
# Protocol: Antiradical (skin protective): this is deduced from the free radical scavenger effects.
# Revitalizing: this is deduced from the increased mitochondrial dehydrogenase effect.
# Cytoprotective, with regard to oxidative damage (antioxidant, anti-inflammatory and anti-ageing): this is deduced from antagonising the stimulation of IL-1β and/or IL-6 induced by 100 µM H2O2 and from the absence of changes in cell morphology similar to the ones due to cell senescence.
# Wound healing: this is deduced from the effect of inhibiting the production of IL-1β and by the effect of stimulating cell proliferation under standard growth conditions.
# Cytotoxicity: this is deduced from the effect of reducing mitochondrial dehydrogenase activity or from the presence of morphologies characteristic of cell senescence.
# Irritation: this is deduced from the effect of increased production of IL-6 and/or IL-1β under standard growth conditions.
# Said uses in the fields of medicine and cosmetics or the toxic effects of the substances of the invention at a given dosage, for 24 hours, are summarized in Table 1 below.
# interleukin 1β (IL-1β) = assay: Inflammatory cytokines in cell supernatant (Mosaic ELISA microarray): IL-1β; assay type: cell-based, Human; conditions: for IL-1β ng/(ml* No. of cells from photo) ± SD: 24 hours
# Protocol: (§1) The inflammatory cytokines, CD40 ligand (CD40L), interferon γ (INF-γ), interleukin 1α (IL-1α), interleukin 1β (IL-1β), interleukin 6 (IL-6), interleukin 8 (IL-8), interleukin 17 (IL-17) and tumour necrosis factor α (TNF-α) were determined qualitatively and quantitatively. Each measurement was performed in duplicate using a Mosaic™ ELISA protein microarray assay system from R&D System in accordance with the supplier's instructions. Furthermore, with the aim of obtaining a correlation model between light signal intensity and cytokine concentration, a calibration curve using 6 concentrations was performed for each of them. Analysis of the data was performed using the dedicated Q-View™ Imager software package from Quansys Biosciences
# [2] = system: Human dermal fibroblasts (HDF); assay: Mitochondrial dehydrogenase activity (WST-1 formazan assay) in HDF cells; conditions: for Revitalizing agent: 24 hours; for activity at 1 µM / activity at 10 µM: Homo sapiens, Fibroblast, read-out: % mitochondrial dehydrogenase activity ± SD
# [3] = system: collagen produced by HDF cells; assay: Quantity of collagen produced by the cells (elution of Sirius Red)
# [4] = Anti-radical activity (decay of the DPPH radical); assay type: biochemical; conditions: for Anti-radical (skin protective): 24 hours
# Protocol: With regard to assays aimed at evaluating anti-radical activity, a chemical test was used where the decay of the diphenylpicrylhydrazyl (DPPH) radical is assessed in the absence or in the presence of the test substances. Indeed, the DPPH radical is used to test the ability of substances to act as free radical scavengers. DPPH in solution has a purple colour with a maximum absorbance peak at 517 nm which changes to yellow-colourless when this radical extracts a hydrogen atom from a radical scavenger to give rise to the reduced form DPPH-H. The assay has been conducted in quadruplicate in 96 well microplates (SARSTEDT Tissue Culture Plate 96-well flat bottom cell+). 50 µl of an ethanol solution of the test substance at 2X concentration and then 50 µl of a 200 µM solution of DPPH (MW 168,18, Aldrich 2,2-di(4-tert-octylphenyl)-1-picrylhydrazyl, free radical Lot# MKBF7574V Cat N° 257621-100 mg) have been added to each well of the microplate. A positive control consisting of 0.1 mM vitamin C and a negative control consisting of ethanol alone were included in each microplate. After 30 minutes from the addition of DPPH, photographs of the plates were taken (Canon PowerShot A610 5.0 Mpixels) and read spectrophotometrically at 530 nm.
# Based on the analysis of the results reported in Table 9, some substances were selected for further characterisation of their anti-radical activity. For the selected substances, dose-activity curves were obtained and the IC50 value were computed using a non-linear regression model with the Hill equation at variable slope. Such substances had been selected due to both their anti-radical potential and the easiness of their isolation/production. The selection of substances was made in view of cosmetics applications. Moreover their activity on human dermal fibroblasts (HDF) is expected to be useful also for the development of dermatological medications. The selected substances are discussed below.
# HDF cells [5] = assay: Evaluation of cell proliferation (counting of Sirius Red stained cells in photographs); conditions: 24 hours
# interleukin 6 (IL-6) = assay: Inflammatory cytokines in cell supernatant (Mosaic ELISA microarray): IL-6; assay type: cell-based, Human; conditions: for IL-6 ng/(ml* No. of cells from photo) ± SD: 24 hours; for IL-6 production (effect in words): 1-10 µM
# Protocol: as §1
# [6] = Dose 1 µm (coptisine: 1 pm [sic])
smiles,measurement,setting,value
COc1ccc2c(c1OC)CN1CCc3cc4c(cc3[C@@H]1C2)OCO4 [canadine],"Anti-fibrotic (prevention of scar formation, also from acne)",HDF cells [1]; [6],"Yes (↓collagen, ↓IL-6, ↓IL-1β)"
same,"Cytoprotective (antioxidant, anti-inflammatory and anti-ageing; useful also in the treatment of acne)",HDF cells [1]; [6],"Yes (↓IL-6, ↓IL-1β)"
same,Cytotoxic,HDF cells [1]; [6],No
same,Irritant,HDF cells [1]; [6],No
same,Wound-healing,HDF cells [1]; [6],Yes (↓IL-1β)
same,"Anti-fibrotic (prevention of scar formation, also from acne)",HDF cells [1]; Dose 10 µm,No
same,"Cytoprotective (antioxidant, anti-inflammatory and anti-ageing; useful also in the treatment of acne)",HDF cells [1]; Dose 10 µm,No
same,Cytotoxic,HDF cells [1]; Dose 10 µm,No
same,Irritant,HDF cells [1]; Dose 10 µm,Yes (↓IL-1β)
same,Wound-healing,HDF cells [1]; Dose 10 µm,No
same,concentrations at which no toxic (cytotoxic and irritant) effects are shown,HDF cells [1]; exposure for 24 hours,less than or equal to 1 µM
same,IL-1β production (effect in words),"interleukin 1β (IL-1β); 1 µM, 34 ng/ml TGF-β1",antagonizes the production of IL-1β
same,IL-1β ng/(ml* No. of cells from photo) ± SD,"interleukin 1β (IL-1β); 1 µM, 34 ng/ml TGF-β1",116±19 ng/(ml* No. of cells from photo)
same,IL-1β production (effect in words),"interleukin 1β (IL-1β); 1 µM, 100 µM H2O2",antagonizes the production of IL-1β
same,IL-1β ng/(ml* No. of cells from photo) ± SD,"interleukin 1β (IL-1β); 1 µM, 100 µM H2O2",90±3 ng/(ml* No. of cells from photo)
same,IL-1β ng/(ml* No. of cells from photo) ± SD,"interleukin 1β (IL-1β); 1 µM, Standard conditions",81±2 ng/(ml* No. of cells from photo)
same,IL-1β production (effect in words),"interleukin 1β (IL-1β); 1 µM, standard conditions",inhibits the production of IL-1β
same,IL-1β production (effect in words),"interleukin 1β (IL-1β); 10 µM, 34 ng/ml TGF-β1",antagonizes the production of IL-1β
same,IL-1β ng/(ml* No. of cells from photo) ± SD,"interleukin 1β (IL-1β); 10 µM, 34 ng/ml TGF-β1",173±14 ng/(ml* No. of cells from photo)
same,IL-1β production (effect in words),"interleukin 1β (IL-1β); 10 µM, 100 µM H2O2",antagonizes the production of IL-1β
same,IL-1β ng/(ml* No. of cells from photo) ± SD,"interleukin 1β (IL-1β); 10 µM, 100 µM H2O2",132±138 ng/(ml* No. of cells from photo)
same,IL-1β ng/(ml* No. of cells from photo) ± SD,"interleukin 1β (IL-1β); 10 µM, Standard conditions",109±1 ng/(ml* No. of cells from photo)
same,IL-1β production (effect in words),"interleukin 1β (IL-1β); 10 µM, standard conditions",stimulates the production of IL-1β
same,concentrations below which no significant effects on mitochondrial dehydrogenase activity are shown,[2],below 0.1 µM
same,Revitalizing agent,[2]; [6],Yes
same,Revitalizing agent,[2]; Dose 10 µm,Yes
same,activity at 1 µM,[2]; 18 h,127 ± 3.64%
same,activity at 10 µM,[2]; 18 h,130 ± 32.4%
same,activity at 1 µM,[2]; 42 h,101 ± 10.6%
same,activity at 10 µM,[2]; 42 h,124 ± 5.34%
same,activity at 1 µM,[2]; 46 h,106 ± 5.25%
same,activity at 10 µM,[2]; 46 h,130 ± 11.1%
same,mitochondrial dehydrogenase activity (effect in words),"[2]; between 0.1 and 100 µM, exposure time 18 and 42 h",tendency to increase in a dose-dependent manner
same,mitochondrial dehydrogenase activity (effect in words),"[2]; fibroblast cells, higher doses",inhibit mitochondrial dehydrogenase activity
same,mitochondrial dehydrogenase activity (effect in words),"[2]; fibroblast cells, low dosage",stimulate mitochondrial dehydrogenase activity
same,collagen production (effect in words),"[3]; 1 µM, standard conditions",no evident effect on the modulation of collagen production
same,collagen production (effect in words),"[3]; 10 µM, standard conditions",collagen production stimulation effect
same,collagen production (effect in words),"[3]; 1-10 µM (1 µM and 10 µM), 34 ng/ml TGF-β1",antagonizes the stimulation of collagen induced by 34 ng/ml TGF-β1
same,collagen production (effect in words),"[3]; 1-10 µM (1 µM and 10 µM), 100 µM H2O2",inhibits collagen production
same,% DPPH activity,"[4]; 1 mM, 30 minutes",103%
same,Anti-radical (skin protective),[4]; [6],No
same,Anti-radical (skin protective),[4]; Dose 10 µm,No
same,No. of cells from photo ± SD,"HDF cells [5]; 1 µM, 34 ng/ml TGF-β1",206±40
same,No. of cells from photo ± SD,"HDF cells [5]; 1 µM, 100 µM H2O2",253±32
same,No. of cells from photo ± SD,"HDF cells [5]; 1 µM, Standard conditions",207±12
same,No. of cells from photo ± SD,"HDF cells [5]; 10 µM, 34 ng/ml TGF-β1",138±3
same,No. of cells from photo ± SD,"HDF cells [5]; 10 µM, 100 µM H2O2",188±25
same,No. of cells from photo ± SD,"HDF cells [5]; 10 µM, Standard conditions",138±5
same,IL-6 ng/(ml* No. of cells from photo) ± SD,"interleukin 6 (IL-6); 1 µM, 34 ng/ml TGF-β1",451±121 ng/(ml* No. of cells from photo)
same,IL-6 ng/(ml* No. of cells from photo) ± SD,"interleukin 6 (IL-6); 1 µM, 100 µM H2O2",584±19 ng/(ml* No. of cells from photo)
same,IL-6 ng/(ml* No. of cells from photo) ± SD,"interleukin 6 (IL-6); 1 µM, Standard conditions",405±8 ng/(ml* No. of cells from photo)
same,IL-6 ng/(ml* No. of cells from photo) ± SD,"interleukin 6 (IL-6); 10 µM, 34 ng/ml TGF-β1",724±43 ng/(ml* No. of cells from photo)
same,IL-6 ng/(ml* No. of cells from photo) ± SD,"interleukin 6 (IL-6); 10 µM, 100 µM H2O2",718±63 ng/(ml* No. of cells from photo)
same,IL-6 ng/(ml* No. of cells from photo) ± SD,"interleukin 6 (IL-6); 10 µM, Standard conditions",508±43 ng/(ml* No. of cells from photo)
same,IL-6 production (effect in words),interleukin 6 (IL-6); 34 ng/ml TGF-β1,antagonizes the production of IL-6
same,IL-6 production (effect in words),interleukin 6 (IL-6); 100 µM H2O2,antagonizes the production of IL-6
same,IL-6 production (effect in words),interleukin 6 (IL-6); standard conditions,inhibits the production of IL-6
"O=C1O[C@H]([C@@H](O)CO)C(O)=C1O [vitamin C, reference compound]",% DPPH activity,"[4]; 0.1 mM, positive control",0%
